Results published in ChEMBL document CHEMBL1201862, “PubChem BioAssay data set” (2004).
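48-hour exposure; five concentrations; linearly interpolated endpoints. The concentration for 50% growth inhibition is given as GI50.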 Active and inactive are the calls of the source. Rule as the data show it: active = GI50 up to about 1.1 µM and inactive = higher.

How the values were obtained:
Test in all cases: NCI tumour cell line growth inhibition, 48 h
HL-60 = test system: HL-60
UACC-62 = test system: UACC-62
Malme-3M = test system: Malme-3M
HT-29 = test system: HT-29
SK-MEL-2 = test system: SK-MEL-2
SF-268 = test system: SF-268
U-251 = test system: U-251
MDA-MB-231 = test system: MDA-MB-231
OVCAR-8 = test system: OVCAR-8
EKVX = test system: EKVX
SK-MEL-5 = test system: SK-MEL-5
NCI-H460 = test system: NCI-H460
ACHN = test system: ACHN
KM12 = test system: KM12
OVCAR-3 = test system: OVCAR-3
A549 = test system: A549
SF-295 = test system: SF-295
LOX IMVI = test system: LOX IMVI
BT-549 = test system: BT-549
DU-145 = test system: DU-145
HCC 2998 = test system: HCC 2998
M14 = test system: M14
UACC-257 = test system: UACC-257
TK-10 = test system: TK-10
K562 = test system: K562
NCI-H226 = test system: NCI-H226
PC-3 = test system: PC-3
MDA-MB-435 = test system: MDA-MB-435
RXF 393 = test system: RXF 393
OVCAR-5 = test system: OVCAR-5
SK-MEL-28 = test system: SK-MEL-28
NCI/ADR-RES = test system: NCI/ADR-RES
OVCAR-4 = test system: OVCAR-4
SN12C = test system: SN12C
IGROV-1 = test system: IGROV-1
SNB-19 = test system: SNB-19
SNB-75 = test system: SNB-75
NCI-H522 = test system: NCI-H522
A498 = test system: A498
T47D = test system: T47D
COLO 205 = test system: COLO 205
HOP-62 = test system: HOP-62
RPMI-8226 = test system: RPMI-8226
Hs-578T = test system: Hs-578T
SR = test system: SR
786-0 = test system: 786-0
SW-620 = test system: SW-620
HCT-15 = test system: HCT-15
SK-OV-3 = test system: SK-OV-3
UO-31 = test system: UO-31
CCRF-CEM = test system: CCRF-CEM
HCT-116 = test system: HCT-116
MDA-N = test system: MDA-N
NCI-H23 = test system: NCI-H23
MCF7 = test system: MCF7
CAKI-1 = test system: CAKI-1
SF-539 = test system: SF-539
MOLT-4 = test system: MOLT-4

`Cc1nc2cccc([N+](=O)[O-])c2n1CCCN(C)C` was tested, and the GI50 (HL-60) was > 100 µM (inactive), the GI50 (UACC-62) was > 100 µM (inactive) and the GI50 (Malme-3M) was > 100 µM (inactive). For the same molecule, the GI50 (HT-29) was > 100 µM (inactive), the GI50 (SK-MEL-2) was > 100 µM (inactive) and the GI50 (SF-268) was > 100 µM (inactive). The GI50 (U-251) was > 100 µM (inactive), the GI50 (MDA-MB-231) was > 100 µM (inactive) and the GI50 (OVCAR-8) was > 100 µM (inactive). For the same molecule, the GI50 (EKVX) was > 100 µM (inactive), the GI50 (SK-MEL-5) was > 100 µM (inactive) and the GI50 (NCI-H460) was > 100 µM (inactive). The GI50 (ACHN) was > 100 µM (inactive), the GI50 (KM12) was > 100 µM (inactive) and the GI50 (OVCAR-3) was > 100 µM (inactive). For the same molecule, the GI50 (A549) was > 100 µM (inactive), the GI50 (SF-295) was > 100 µM (inactive) and the GI50 (LOX IMVI) was > 100 µM (inactive). The GI50 (BT-549) was > 100 µM (inactive), the GI50 (DU-145) was > 100 µM (inactive) and the GI50 (HCC 2998) was > 100 µM (inactive). The GI50 (M14) was 22.6 µM (inactive), the GI50 (UACC-257) was > 100 µM (inactive) and the GI50 (TK-10) was > 100 µM (inactive). For the same molecule, the GI50 (K562) was > 100 µM (inactive), the GI50 (NCI-H226) was > 100 µM (inactive) and the GI50 (PC-3) was > 100 µM (inactive). The GI50 (MDA-MB-435) was > 100 µM (inactive), the GI50 (RXF 393) was > 100 µM (inactive) and the GI50 (OVCAR-5) was > 100 µM (inactive). For the same molecule, the GI50 (SK-MEL-28) was > 100 µM (inactive), the GI50 (NCI/ADR-RES) was > 100 µM (inactive) and the GI50 (OVCAR-4) was > 100 µM (inactive). For the same molecule, the GI50 (SN12C) was > 100 µM (inactive), the GI50 (IGROV-1) was > 100 µM (inactive) and the GI50 (SNB-19) was > 100 µM (inactive). For the same molecule, the GI50 (SNB-75) was > 100 µM (inactive), the GI50 (NCI-H522) was > 100 µM (inactive) and the GI50 (A498) was > 100 µM (inactive). The GI50 (T47D) was > 100 µM (inactive), the GI50 (COLO 205) was > 100 µM (inactive) and the GI50 (HOP-62) was > 100 µM (inactive). For the same molecule, the GI50 (RPMI-8226) was > 100 µM (inactive), the GI50 (Hs-578T) was > 100 µM (inactive) and the GI50 (SR) was > 100 µM (inactive). The GI50 (786-0) was > 100 µM (inactive), the GI50 (SW-620) was > 100 µM (inactive) and the GI50 (HCT-15) was over 100 µM. For the same molecule, the GI50 (SK-OV-3) was > 100 µM (inactive), the GI50 (UO-31) was 16.8 µM (inactive) and the GI50 (CCRF-CEM) was > 100 µM (inactive). For the same molecule, the GI50 (HCT-116) was > 100 µM (inactive), the GI50 (MDA-N) was > 100 µM (inactive) and the GI50 (NCI-H23) was > 100 µM (inactive). The GI50 (MCF7) was > 100 µM (inactive) and the GI50 (CAKI-1) was > 100 µM (inactive).

For `CC(C)(C)[Si](C)(C)OCC1OC(n2cc(F)c(=O)[nH]c2=O)CC1O[Si](C)(C)C(C)(C)C` (stereo not drawn), the GI50 (SF-539) was 13.6 µM (inactive), the GI50 (HL-60) was 3.78 µM (inactive) and the GI50 (UACC-62) was 5.14 µM (inactive). For the same molecule, the GI50 (Malme-3M) was 16.4 µM (inactive), the GI50 (HT-29) was 7.19 µM (inactive) and the GI50 (SK-MEL-2) was 12.1 µM (inactive). For the same molecule, the GI50 (SF-268) was 14.5 µM (inactive), the GI50 (U-251) was 8.65 µM (inactive) and the GI50 (MDA-MB-231) was 7.5 µM (inactive). The GI50 (OVCAR-8) was 16.1 µM (inactive), the GI50 (EKVX) was 8.04 µM (inactive) and the GI50 (SK-MEL-5) was 3.27 µM (inactive). For the same molecule, the GI50 (NCI-H460) was 2.4 µM (inactive), the GI50 (ACHN) was 10.1 µM (inactive) and the GI50 (KM12) was 4.19 µM (inactive). For the same molecule, the GI50 (OVCAR-3) was 15.2 µM (inactive), the GI50 (A549) was 10.5 µM (inactive) and the GI50 (SF-295) was 6.97 µM (inactive). The GI50 (LOX IMVI) was 5.79 µM (inactive), the GI50 (BT-549) was 5.43 µM (inactive) and the GI50 (DU-145) was 3.46 µM (inactive). For the same molecule, the GI50 (HCC 2998) was 1.72 µM (inactive), the GI50 (M14) was 13.3 µM (inactive) and the GI50 (UACC-257) was 4.02 µM (inactive). The GI50 (TK-10) was 2.84 µM (inactive), the GI50 (K562) was 4.14 µM (inactive) and the GI50 (NCI-H226) was 19.4 µM (inactive). The GI50 (PC-3) was 3.16 µM (inactive), the GI50 (MDA-MB-435) was 12 µM (inactive) and the GI50 (RXF 393) was 4.42 µM (inactive). For the same molecule, the GI50 (MOLT-4) was 3.98 µM (inactive), the GI50 (OVCAR-5) was 17 µM (inactive) and the GI50 (NCI/ADR-RES) was 16 µM (inactive). The GI50 (OVCAR-4) was 6.46 µM (inactive), the GI50 (SN12C) was 2.89 µM (inactive) and the GI50 (IGROV-1) was 6.71 µM (inactive). For the same molecule, the GI50 (SNB-19) was 12.4 µM (inactive), the GI50 (SNB-75) was 4.03 µM (inactive) and the GI50 (NCI-H522) was 3.29 µM (inactive). The GI50 (A498) was 6.87 µM (inactive), the GI50 (T47D) was 1.11 µM (active) and the GI50 (COLO 205) was 4.25 µM (inactive). The GI50 (HOP-62) was 13.2 µM (inactive), the GI50 (RPMI-8226) was 3.5 µM (inactive) and the GI50 (Hs-578T) was 11.1 µM (inactive). For the same molecule, the GI50 (SR) was 3.1 µM (inactive), the GI50 (786-0) was 8.63 µM (inactive) and the GI50 (SW-620) was 9.93 µM (inactive). For the same molecule, the GI50 (HCT-15) was 7.24 µM, the GI50 (SK-OV-3) was 14 µM (inactive) and the GI50 (UO-31) was 10.8 µM (inactive). For the same molecule, the GI50 (CCRF-CEM) was 4.17 µM (inactive), the GI50 (HCT-116) was 7.66 µM (inactive) and the GI50 (MDA-N) was 6.21 µM (inactive). For the same molecule, the GI50 (NCI-H23) was 6.53 µM (inactive), the GI50 (MCF7) was 5.01 µM (inactive) and the GI50 (CAKI-1) was 12.5 µM (inactive).
